Here are results for 22 compounds from patent publication US20050272784A1 (priority 2004, published 2005).

SMILES strings stand for the structures.

One experiment concerns type III protein secretion system of P. aeruginosa PA103 (ExoU secretion). Nature of the experiment: Tertiary assay: Type III-dependent secretion of ExoU by P. aeruginosa PA103. The settings on record: Pseudomonas aeruginosa, ExoU Conc 100 μM, read-out: ExoU % Inh. It is filed as cell-based. An excerpt: Tertiary assay: inhibition of Type III protein secretion of effectors from a Pseudomonas aeruginosa system. Type III protein secretion is used by P. aeruginosa to secrete several essential virulence determinants. One effector of the type III protein secretion system of P. aeruginosa PA103 is the virulence determinants ExoU.
The amount of Type III-dependent secretion of ExoU by P. aeruginosa PA103 can be determined in a cell-based assay by quantification of the 73.9 kDa ExoU protein scereted into the extracellular medium. Such quantitation can be achieved by growing strain PA103 in a deferrated medium in the presence of nitrilotriacetic acid (an inducer of Type III protein secretion in P. aeruginosa) and either in the presence or absence of putative inhibitors. After a prolonged growth period, the cells are sedimented and the supernatants concentrated by ammonium sulfate precipitation. The proteins in the resuspended pellets are separated by electrophoresis on SDS-polyacrylamide gels. After staining gels with Colloidal Blue™, the 73.9 kDa ExoU band is quantitated by scanning through an imager. The effects of inhibitors on the intensity of the ExoU band may be measured relative to that of untreated controls.
`O=C(NC(Cc1ccc(Cl)cc1)C(=O)O)c1nc(-c2ccc(C(F)(F)F)cc2)oc1-c1ccc(-c2ccccc2)cc1` (stereo not shown) [Compound 59, 2-{[5-Biphenyl-4-yl-2-(4-trifluoromethylphenyl)oxazole-4-carbonyl]amino}-3-(4-chlorophenyl)propionic acid]: the inhibition at 100 µM is 84.1%.

As to `O=C(NC(Cc1ccc(Cl)cc1)C(=O)O)c1nc(-c2ccc(-c3ccccc3)cc2)oc1-c1cccc(C(F)(F)F)c1` (stereo not shown) [Compound 60, 2-{[2-Biphenyl-4-yl-5-(3-trifluoromethylphenyl)oxazole-4-carbonyl]amino}-3-(4-chlorophenyl)propionic acid], the inhibition at 100 µM is 90.2%.

The experiment is the same for the next values; noted with them: Pseudomonas aeruginosa, ExoU secreted into extracellular medium.
As to `Cc1nc(-c2ccc(-c3oc(-c4ccc(C(F)(F)F)cc4)nc3C(=O)N[C@@H](CSCc3ccccc3)C(=O)O)cc2)no1` [Compound 51, (R)-3-Benzylsulfanyl-2-{[5-[4-(5-methyl[1,2,4]oxadiazol-3-yl)phenyl]-2-(4-trifluoromethylphenyl)oxazole-4-carbonyl]amino}propionic acid], the IC50 (as a rule, the midpoint of a concentration-inhibition curve) worked out at 19.5 µM.

In turn, `O=C(N[C@@H](COCc1ccccc1)C(=O)O)c1nc(-c2ccc(-c3ccsc3)cc2)oc1-c1ccc(Cl)c(Cl)c1` [Compound 52, (S)-3-Benzyloxy-2-{[5-(3,4-dichlorophenyl)-2-(4-thien-3-yl-phenyl)oxazole-4-carbonyl]amino}propionic acid] returned an IC50 of 56.4 µM.

As for `O=C(N[C@@H](COCc1ccccc1)C(=O)O)c1nc(-c2ccc(C(F)(F)F)cc2)oc1-c1cnc2ccccc2n1` [Compound 53, (S)-3-Benzyloxy-2-{[5-quinoxalin-2-yl-2-(4-trifluoromethylphenyl)oxazole-4-carbonyl]amino}propionic acid], half-maximal inhibition (IC50) was put at 64.6 µM.

On to `O=C(NC(Cc1ccc(Cl)cc1)C(=O)O)c1nc(-c2ccc(C(F)(F)F)cc2)oc1C1CCN(c2nccc(C(F)(F)F)n2)CC1` (stereo not shown) [Compound 55, 3-(4-Chlorophenyl)-2-({2-(4-trifluoromethylphenyl)-5-[1-(4-trifluoromethylpyrimidin-2-yl)piperidin-4-yl]oxazole-4-carbonyl}amino)propionic acid], for which half-maximal inhibition (IC50) required 51.7 µM.

As for `O=C(N[C@@H](CSCc1ccccc1)C(=O)O)c1nc(-c2ccc(C(F)(F)F)cc2)oc1C1CCN(c2nccc(C(F)(F)F)n2)CC1` [Compound 57, (R)-3-Benzylsulfanyl-2-({2-(4-trifluoromethylphenyl)-5-[1-(4-trifluoromethylpyrimidin-2-yl)piperidin-4-yl]oxazole-4-carbonyl}amino)propionic acid], the IC50 stood at 50 µM.

In turn, `O=C(N[C@@H](COCc1ccccc1)C(=O)O)c1nc(-c2ccc(-c3ccccc3)cc2)oc1-c1ccc(Cl)cc1Cl` [Compound 61, (S)-3-Benzyloxy-2-{[2-biphenyl-4-yl-5-(2,4-dichlorophenyl)oxazole-4-carbonyl]amino}propionic acid] gave an IC50 of 66.1 µM.

The compound `O=C(N[C@@H](COCc1ccccc1)C(=O)O)c1nc(-c2ccc(-c3ccccc3)cc2)oc1-c1cccc(C(F)(F)F)c1` [Compound 62, (S)-3-Benzyloxy-2-{[2-biphenyl-4-yl-5-(3-trifluoromethylphenyl)oxazole-4-carbonyl]amino}propionic acid] yielded an IC50 of 50.5 µM.

In turn, `O=C(N[C@@H](COCc1ccccc1)C(=O)O)c1nc(-c2ccc(C(F)(F)F)cc2)oc1-c1ccc(-c2ccccc2)cc1` [Compound 63, (S)-3-Benzyloxy-2-{[5-biphenyl-4-yl-2-(4-trifluoromethylphenyl)oxazole-4-carbonyl]amino}propionic acid] showed an IC50 of 37.3 µM.

As to `O=C(N[C@H](Cc1ccc(Cl)cc1)C(=O)O)c1nc(-c2cccc3ccccc23)oc1-c1ccc(C(F)(F)F)nc1` [Compound 64, (R)-3-(4-Chlorophenyl)-2-{[2-naphthalen-1-yl-5-(6-trifluoromethylpyridin-3-yl)oxazole-4-carbonyl]amino}propionic acid], the IC50 came out at 51.4 µM.

With `O=C(N[C@@H](CSCc1ccccc1)C(=O)O)c1nc(-c2cccc3ccccc23)oc1-c1ccc(C(F)(F)F)nc1` [Compound 65, (R)-3-Benzylsulfanyl-2-{[2-naphthalen-1-yl-5-(6-trifluoromethylpyridin-3-yl)oxazole-4-carbonyl]amino}propionic acid], the 50% inhibitory concentration (IC50) came out at 53.1 µM.

`Cc1nc(-c2ccc(-c3oc(-c4ccc(C(F)(F)F)cc4)nc3C(=O)N[C@@H](COCc3ccccc3)C(=O)O)cc2)no1` [Compound 66, (S)-3-Benzyloxy-2-{[5-[4-(5-methyl[1,2,4]oxadiazol-3-yl)phenyl]-2-(4-trifluoromethylphenyl)oxazole-4-carbonyl]amino}propionic acid] yielded an IC50 of 12.5 µM.

For the compound `Cc1nc(-c2ccc(-c3oc(-c4ccc(C(F)(F)F)cc4)nc3C(=O)N[C@H](Cc3ccc(Cl)cc3)C(=O)O)cc2)no1` [Compound 67, 3-(4-Chlorophenyl)-2-{[5-[4-(5-methyl[1,2,4]oxadiazol-3-yl)phenyl]-2-(4-trifluoromethylphenyl)oxazole-4-carbonyl]amino}propionic acid], the IC50 was 12.5 µM.

Compound `O=C(N[C@@H](COCc1ccccc1)C(=O)O)c1nc(-c2ccc(-c3ccccc3)cc2)nn1-c1ccc(Cl)c(Cl)c1` [Compound 68, (S)-3-Benzyloxy-2-{[5-biphenyl-4-yl-2-(3,4-dichlorophenyl)-2H-[1,2,4]triazole-3-carbonyl]amino}propionic acid] showed an IC50 of 39.2 µM.

Consider `O=C(NC(Cc1ccc(Cl)cc1)C(=O)O)c1nc(-c2ccc(-c3ccccc3)cc2)nn1-c1ccc(Cl)c(Cl)c1` (stereo not shown) [Compound 69, 2-{[5-Biphenyl-4-yl-2-(3,4-dichlorophenyl)-2H-[1,2,4]triazole-3-carbonyl]amino}-3-(4-chlorophenyl)propionic acid], for which the half-inhibitory concentration (IC50) came out at 32.4 µM.

`O=C(N[C@@H](C[S+]([O-])Cc1ccccc1)C(=O)O)c1nc(-c2ccc(-c3ccccc3)cc2)nn1-c1ccc(Cl)c(Cl)c1` (stereo partly drawn) [Compound 70, (R)-2-{[5-Biphenyl-4-yl-2-(3,4-dichlorophenyl)-2H-[1,2,4]triazole-3-carbonyl]amino}-3-phenylmethanesulfinylpropionic acid]: the IC50 stood at 25.5 µM.

Regarding `O=C(N[C@H](COCc1ccccc1)C(=O)O)c1nc(-c2ccc(-c3ccccc3)cc2)oc1-c1cccc(C(F)(F)F)c1` [Compound 71, (R)-3-Benzyloxy-2-{[2-biphenyl-4-yl-5-(3-trifluoromethylphenyl)oxazole-4-carbonyl]amino}propionic acid], the IC50 amounted to 45.3 µM.

`O=C(N[C@H](COCc1ccccc1)C(=O)O)c1nc(-c2ccc(C(F)(F)F)cc2)oc1-c1ccc(-c2ccccc2)cc1` [Compound 72, (R)-3-Benzyloxy-2-{[5-biphenyl-4-yl-2-(4-trifluoromethylphenyl)oxazole-4-carbonyl]amino}propionic acid] yielded an IC50 of 54.8 µM.

In turn, `O=C(N[C@@H](Cc1ccc(Cl)cc1)C(=O)O)c1nc(-c2ccc(C(F)(F)F)cc2)oc1-c1ccc(-c2ccccc2)cc1` [Compound 73, (S)-2-{[5-Biphenyl-4-yl-2-(4-trifluoromethylphenyl)oxazole-4-carbonyl]amino}-3-(4-chlorophenyl)propionic acid] registered an IC50 of 56.1 µM.

A further experiment deals with SPI1 type III protein secretion system (SopE'-'Bla secretion). Nature of the experiment: Primary assay: Type III protein secretion of the chimeric SopE'-'Bla polypeptide by Salmonella enterica. The class given is cell-based. The following applies: read-out: SopE IC50. From the text: Primary assay: Type III protein secretion of the chimeric SopE′-'Bla polypeptide by Salmonella enterica. This procedure is a cell-based assay that measures the type III-dependent secretion by Salmonella enterica of a plasmid-encoded chimeric polypeptide whose synthesis can be regulated, and which is endowed with an enzymatic activity that can be monitored […] by hydrolysis of a substrate that is unable to penetrate into the bacterial cytoplasm within the time constraints of the reaction. Thus, the colorimetric reaction is not influenced by SopE′-'Bla polypeptide in the bacterial cytoplasm. Instead, it effectively measures the amount of polypeptide that has been secreted from the S. enterica cytoplasm to the extracellular medium via type III system protein secretion.
The SopE′-' Bla recombinant polypeptide consists of two functionally distinct domains spliced together. The N-terminus domain is encoded by a polynucleotide region specifying the signal for type III secretion of the SopE polypeptide of S. enterica, an effector of the SPI1 type III protein secretion system. The C-terminus domain of SopE′-'Bla consists of a 263 amino acid peptide sequence that corresponds to the TEM-1 β-lactamase expressed by plasmid pBR322 but without its N-terminal signal sequence. The TEM-1 β-lactamase part of the SopE′-'Bla chimeric polypeptide is used as a reporter enzyme. It is capable of hydrolyzing nitrocefin resulting in a product whose accumulation can be monitored by colorimetric detection. The secretion of the SopE′-'Bla chimeric polypeptide from the cytoplasm to the extracellular medium is dependent on type III protein secretion.
For this procedure, cells grown under conditions known to favor a functional SPI1 secretion system are induced for expression of the SopE′-'Bla protein and grown either in the presence or in the absence of putative inhibitors for determined time. Nitrocefin is then added to the various cultures and its hydrolysis are used for quantitation. An inhibitor of Type III protein secretion is generally a compound that reduces the signal of the enzymatic reaction by decreasing the amount of SopE′-'Bla secreted into the extracellular medium.
For the compound `O=C(N[C@@H](CSCc1ccccc1)C(=O)O)c1nc(-c2ccc(C(F)(F)F)cc2)sc1-c1ccc(-c2ccccc2)cc1` [Compound 2, (R)-3-Benzylsulfanyl-2-{[5-biphenyl-4-yl-2-(4-trifluoromethylphenyl)thiazole-4-carbonyl]amino}propionic acid], the IC50 turned out to be 16.5 µM.

Turning to `O=C(N[C@@H](COCc1ccccc1)C(=O)O)c1nc(-c2ccc(-c3ccccc3)cc2)oc1-c1ccc(Cl)c(Cl)c1` [Compound 6, (S)-3-Benzyloxy-2-{[2-biphenyl-4-yl-5-(3,4-dichlorophenyl)oxazole-4-carbonyl]amino}propionic acid], the IC50 was 25.6 µM.
